Measured values taken from patent US9925206B2, “Compositions and methods for treating bacterial infection” (priority 2015, dated 2018).
Like-named read-outs stand apart in the source and are kept apart here.

Columns and labels:
P. aeruginosa = assay: Checkerboard assay of EDTA and antibiotics with and without acidified nitrite background; type: cell-based, Pseudomonas aeruginosa
Description: The antibiotic agents used in these studies included Tobramycin, Azithromycin, Colistin, Ticarcillin, Ciprofloxacin, Sulfametoxazole, Sulfamethazine, Tetracycline, Vancomycin, Imipenem, and Cefepime. […] Aerobic samples are incubated for 24 or 48 hours, and anaerobic samples are incubated for 48 hours.

P. aeruginosa biofilm = details: acidified nitrite 15, 25, 35 mM and EDTA 1, 5, 10 mM alone, aerobic and anaerobic, 24 hours treatment
Description: In order to determine the efficacy of the combination treatment for biofilm elimination, we employed a Crystal Violet assay. This allows us to determine the total biomass of the biofilm.
Crystal Violet stains biofilm mass which is a quantitative measure of biofilm density/thickness, but not necessarily viability (live/dead) of the biomass.
Cultures are grown for 24 hours aerobically or anaerobically, and then treated for 24 hours before assay.
P. aeruginosa was allowed to adhere to 96 well polystyrene 96 well microplates at incubate at 37° C. under aerobic vs. anaerobic conditions. The biofilms were washed with PBS and stained with 1% crystal violet (CV) for 15 minutes at room temperature. The CV was removed and the stained bacteria washed an additional 3 times prior to solubilization of the CV with 95% ethanol. The absorbance at 590 nm was monitored using a microplate reader.

PA strain PAO1 = assay: Optical density growth/viability of PAO1 with A-NO2-, EDTA and/or tobramycin; type: cell-based, Pseudomonas aeruginosa; details: for growth of PAO1: 15 mM A-NO2- or 1 mM EDTA and 2 μg/ml TOBI
Description: FIG. 2 represent optical density measurements with control (untreated) bacteria arbitrarily set to 1.0 after 24 and 48 hr of growth at 37° C. in a standard rich medium known Luria broth (LB). Another experiment included the powerful aminoglycoside antibiotic, tobramycin (TOBI), that is commonly used for the treatment of PA CF/COPD lung infections (Moreau-Marquis S, et al. 2009. Am J Respir Cell Mol Biol 41:305-313; Dal Negro R, et al. 2008. Adv Ther 25:1019-1030). Nitrite was used at 25 mM (aerobic) or 15 mM (anaerobic); EDTA, 1.0 mM; TOBI, 2 μg/ml. Anaerobic LB was supplemented with 0.1 M potassium phosphate, pH 6.5 and 100 mM KNO3 as a terminal electron acceptor for anaerobic growth.

P. aeruginosa (PAO1) = details: 10 mM EDTA; 30 mM NaNO2; 10 mM EDTA-10 mM NaNO2
Description: BALB/c mice (8 per group) were infected with 1.7×10^6 P. aeruginosa (PAO1) in 1 mg/ml alginate.
The infected mice (n=8) were treated with either (i) 10 mM PBS, pH 6.5, (ii) 10 mM EDTA in PBS, pH 6.5, (iii) 30 mM NaNO2 in PBS, pH 6.5, or (iv) 10 mM EDTA-10 mM NaNO2 in PBS, pH 6.5. Agents were administered as inhaled therapies beginning at 12 hours post-inoculation and continued once daily.

PA = details: EDTA alone; cited from earlier work
[1] = cited from earlier work
[2] = system: non-mucoid strains, PAO1 and FRD1/pmucA; details: 15 mM A-NO2-, pH 6.5, anaerobic, 4 day incubation; cited from earlier work
non-mucoid FRD1/pmucA = details: cited from earlier work
mucoid FRD1 = details: cited from earlier work
FRD1/pmucA = details: mucA complemented strain, pH values between 6.0 and 7.5; cited from earlier work
FRD1 = details: mucA mutant FRD1; cited from earlier work
mucoid PA CF strain FRD1 = details: 15 mM A-NO2-, pH 6.5, anaerobic; cited from earlier work
[3] = system: mucoid FRD1 and non-mucoid FRD1/pmucA; details: anaerobic 15 mM NO2-, pH 6.5, after 5 days, cited from earlier work
anaerobic FRD1 biofilms = details: 15 mM NO2-, cited from earlier work

CC[C@H]1OC(=O)[C@H](C)[C@@H](O[C@H]2C[C@@](C)(OC)[C@@H](O)[C@H](C)O2)[C@H](C)[C@@H](O[C@@H]2O[C@H](C)C[C@H](N(C)C)[C@H]2O)[C@](C)(O)C[C@@H](C)CN(C)[C@H](C)[C@@H](O)[C@]1(C)O [Azithromycin]
bactericidal activity of the antibiotic when combined with NaNO2 and EDTA (P. aeruginosa): synergistically increases the bactericidal activity | result in combination with EDTA/NO2- (P. aeruginosa; compared with the other antibiotic agents): best results so far in combination

O=C(O)CN(CCN(CC(=O)O)CC(=O)O)CC(=O)O [EDTA, ethylene diamine tetraacetic acid, reference compound]
biomass density/thickness of biofilm (P. aeruginosa biofilm): reduction of biomass density/thickness | MICs of EDTA upon addition of acidified nitrite (P. aeruginosa; nitrite background 7.5 mM): decreased | growth of PAO1 (PA strain PAO1): initially impaired | average CFU/lung relative to control (PBS) (P. aeruginosa (PAO1)): reduced | clinical course or airway microbial flora (PA): not modify the clinical course or the airway microbial flora | toxicity in humans ([1]; in vivo): minimal toxicity

NC[C@H]1O[C@H](O[C@H]2[C@H](O)[C@@H](O[C@H]3O[C@H](CO)[C@@H](O)[C@H](N)[C@H]3O)[C@H](N)C[C@@H]2N)[C@H](N)C[C@@H]1O [TOBI, tobramycin]
bactericidal activity of the antibiotic when combined with NaNO2 and EDTA (P. aeruginosa): synergistically increases the bactericidal activity | growth of PAO1 (PA strain PAO1): initially impaired | killing PA (PA strain PAO1; anaerobic conditions, TOBI 2 μg/ml): not effective

acidified nitrite [A-NO2^−]
biomass density/thickness of biofilm (P. aeruginosa biofilm): reduction of biomass density/thickness | viability of non-mucoid strains [2]: remained viable | competitive index (non-mucoid FRD1/pmucA; complemented strain FRD1/pmucA, CD1 mouse airways, 6 days): ~1.0 | decrease of bacteria in mouse lungs (non-mucoid FRD1/pmucA; pH 6.5 and pH 5.5): not | bacteria in mouse lungs after long-term treatment (mucoid FRD1; 15 mM NO2- daily for 16 days): no bacteria detected | competitive index (mucoid FRD1; FRD1, 10^6 intratracheally instilled into CD1 mouse airways, 6 days): ~0.2 | decrease of bacteria in mouse lungs (mucoid FRD1; pH 5.5, daily treatment): > 3 logs | decrease of bacteria in mouse lungs (mucoid FRD1; pH 6.5, daily treatment): > 2 logs | killing as a function of pH (FRD1/pmucA): little or no killing | killing as a function of pH (FRD1): more effectively at lower pH | growth of PAO1 (PA strain PAO1): initially impaired | average CFU/lung relative to control (PBS) (P. aeruginosa (PAO1)): reduced | rate of killing of mucoid FRD1 (mucoid PA CF strain FRD1): ~90 % per day | CFU of mucoid FRD1 in mixed culture ([3]; three bacterial ratios): < 10^3 CFU/ml | viability of mucoid FRD1 in mixed culture [3]: lost viability | viability of non-mucoid FRD1/pmucA in mixed culture [3]: maintained viability | death of biofilm bacteria (anaerobic FRD1 biofilms; pH 6.5, 2 days): nearly complete death of biofilm bacteria | biofilm structure and cell viability relative to control biofilms (anaerobic FRD1 biofilms; pH 7.5, 2 days): no difference in biofilm structure and cell viability | toxicity in humans ([1]; each agent separately): minimal toxicity
